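Cultured in 96-well plates, cells were exposed to test compound for 48 hours across five concentrations. The concentration for 50% growth inhibition is given as GI50.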 Calls of active or inactive are those of the source. Cut-off read from the data, not from the text of the source: active = GI50 up to about 1.1 µM and inactive = higher.
Legend:
Assay in all cases: inhibition of tumour cell growth, NCI panel, 48 h
SF-539 = tested on: SF-539
HCC 2998 = tested on: HCC 2998
NCI-H522 = tested on: NCI-H522
XF498 = tested on: XF498
SF-268 = tested on: SF-268
A549 = tested on: A549
LXFL 529 = tested on: LXFL 529
KM-20L2 = tested on: KM-20L2
HOP-92 = tested on: HOP-92
MCF7 = tested on: MCF7
MDA-MB-231 = tested on: MDA-MB-231
UACC-257 = tested on: UACC-257
SK-MEL-5 = tested on: SK-MEL-5
A498 = tested on: A498
BT-549 = tested on: BT-549
MDA-MB-435 = tested on: MDA-MB-435
Hs-578T = tested on: Hs-578T
MDA-N = tested on: MDA-N
RXF 631 = tested on: RXF 631
SNB-78 = tested on: SNB-78

Cn1c(=O)n(CC2CS2)c2ccccc21 (centres undefined)
GI50 (SF-539): > 100 µM (inactive)
GI50 (HCC 2998): > 100 µM (inactive)
GI50 (NCI-H522): > 100 µM (inactive)
GI50 (XF498): > 100 µM (inactive)
GI50 (SF-268): > 100 µM (inactive)
GI50 (A549): > 100 µM (inactive)
GI50 (LXFL 529): > 100 µM (inactive)
GI50 (KM-20L2): > 100 µM (inactive)
GI50 (HOP-92): 68.4 µM (inactive)

CC(C)(C)[Si](C)(C)OCC1OC(n2cnc3c(N)ncnc32)C2OC(=S)OC12 (centres undefined)
GI50 (MCF7): 34.6 µM (inactive)
GI50 (MDA-MB-231): 27.7 µM (inactive)
GI50 (UACC-257): 43.3 µM (inactive)
GI50 (SK-MEL-5): 17 µM (inactive)
GI50 (A498): 52.7 µM (inactive)
GI50 (BT-549): 25.1 µM (inactive)
GI50 (MDA-MB-435): 19.9 µM (inactive)
GI50 (Hs-578T): 41.5 µM (inactive)
GI50 (MDA-N): 27.2 µM (inactive)
GI50 (HOP-92): 70.8 µM (inactive)

CCCOP(=O)(OCCC)OC(C(F)(F)F)C(F)(F)F
GI50 (SF-539): > 100 µM (inactive)
GI50 (HCC 2998): > 100 µM (inactive)
GI50 (MCF7): > 100 µM (inactive)
GI50 (NCI-H522): > 100 µM (inactive)
GI50 (MDA-MB-231): > 100 µM (inactive)
GI50 (UACC-257): > 100 µM (inactive)
GI50 (A498): > 100 µM (inactive)
GI50 (BT-549): > 100 µM (inactive)
GI50 (MDA-MB-435): > 100 µM (inactive)
GI50 (Hs-578T): > 100 µM (inactive)
GI50 (MDA-N): > 100 µM (inactive)

CN1Cc2cc(O)c(O)cc2C(O)C1 (centres undefined)
GI50 (SF-539): > 100 µM (inactive)
GI50 (HCC 2998): > 100 µM (inactive)
GI50 (MCF7): > 100 µM (inactive)
GI50 (NCI-H522): 49.3 µM (inactive)
GI50 (MDA-MB-231): > 100 µM (inactive)
GI50 (UACC-257): > 100 µM (inactive)
GI50 (SK-MEL-5): > 100 µM (inactive)
GI50 (SF-268): > 100 µM (inactive)
GI50 (A549): > 100 µM (inactive)
GI50 (BT-549): > 100 µM (inactive)
GI50 (MDA-MB-435): 82.6 µM (inactive)
GI50 (Hs-578T): > 100 µM (inactive)
GI50 (MDA-N): 55.2 µM (inactive)
GI50 (HOP-92): > 100 µM (inactive)

O=C(c1ccccc1)[C@H]1Nc2ccc(Cl)cc2[C@H]2OCCC[C@@H]12
GI50 (HCC 2998): 22.2 µM (inactive)
GI50 (NCI-H522): 14.1 µM (inactive)
GI50 (RXF 631): 17.9 µM (inactive)
GI50 (XF498): 19.5 µM (inactive)
GI50 (SNB-78): 24.1 µM (inactive)
GI50 (SF-268): 19 µM (inactive)
GI50 (LXFL 529): 12.1 µM (inactive)
GI50 (KM-20L2): 16.7 µM (inactive)

COc1cc(C2C3=C(CCC3=O)Oc3cc4c(cc32)OCO4)cc(OC)c1OC (centres undefined)
GI50 (RXF 631): 0.367 µM (active)
GI50 (UACC-257): 0.406 µM (active)
GI50 (XF498): 0.122 µM (active)
GI50 (SNB-78): 0.706 µM (active)
GI50 (SK-MEL-5): 0.237 µM (active)
GI50 (A549): 0.448 µM (active)
GI50 (KM-20L2): 0.238 µM (active)
GI50 (HOP-92): 0.036 µM (active)

O=C(Nc1ccccc1)C(=O)C(C(=O)c1ccccc1F)C1OC(=O)c2ccccc21 (centres undefined)
GI50 (SF-539): 19.3 µM (inactive)
GI50 (HCC 2998): 30.3 µM (inactive)
GI50 (NCI-H522): 21.5 µM (inactive)
GI50 (RXF 631): 31.2 µM (inactive)
GI50 (UACC-257): 66.5 µM (inactive)
GI50 (XF498): 20.7 µM (inactive)
GI50 (SNB-78): > 100 µM (inactive)
GI50 (SK-MEL-5): 71.8 µM (inactive)
GI50 (A498): 89.3 µM (inactive)
GI50 (SF-268): 21.1 µM (inactive)
GI50 (A549): 37.8 µM (inactive)
GI50 (LXFL 529): 23.6 µM (inactive)
GI50 (KM-20L2): 33.6 µM (inactive)
GI50 (HOP-92): > 100 µM (inactive)

From ChEMBL document CHEMBL1201862, “PubChem BioAssay data set” (2004)
